The values that follow come from BindingDB's records for doi:10.1016/0960-894X(94)85036-4 (1994).

This test addresses Type-1 angiotensin II receptor (Rattus norvegicus). As to the kind of experiment: […] inhibitory concentration against Angiotensin II receptor, type 1 of rat adrenal membrane.

Usually IC50 stands for the concentration needed to halve the response being measured. Take `CCCCOC(=O)NS(=O)(=O)c1ccccc1-c1ccc(Cn2c(CCCC)nc3ccc(NC(=O)N(C)C(C)C)cc3c2=O)cc1` [2-Butyl-3-(2'-(butyloxycarbonylaminosulphonyl)-biphenyl-4-ylmethyl)-6-(N-isopropyl-N-methyl-aminocarbonylamino)-3H-quinazolin-4-one]: the midpoint of inhibition, the IC50, lay at 4 nM.
